Read-outs that look alike come from different tables or passages of the source.
How the values were obtained:
Format in all cases: cell-based
[1] = tested on: Human Glioma Cells U-87 MG; experiment: Cell proliferation experiment (Alarm blue, 72 h, EC50); conditions: Homo sapiens; U-87MG cells
In short: (§1)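 Log-phase cells, passaged at least 2 generations, were seeded in 96-well plates and exposed to test compound in complete medium as a 5-fold dilution series in duplicate for 72 h. Fluorescence was read by Alamar blue and EC50 fitted to a four-parameter curve (Min, Max, Slope).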

[2] = tested on: Human Acute Myelomonocytic Leukemia HL-60; experiment: as above; conditions: HL-60 cells
In short: as §1

[3] = tested on: Human Small Cell Lung Cancer NCI-H82; experiment: as above; conditions: Homo sapiens, NCI-H82; NCIH82 cells
In short: as §1

[4] = tested on: Human Monocytic Leukemia THP-1; experiment: as above; conditions: THP-1 cells
In short: as §1

[5] = tested on: Human cervical adenocarcinoma cells Hela; experiment: as above; conditions: Homo sapiens
In short: as §1

[6] = tested on: Human Monocytic Leukemia MV4-11; experiment: as above; conditions: Homo sapiens
In short: as §1

[7] = tested on: Human Breast Cancer MDA-MB-231; experiment: as above; conditions: Homo sapiens; MDA-MB-231 cells
In short: as §1

Human Colon Cancer HT-29 = experiment: as above; conditions: Homo sapiens; HT-29 cells
In short: as §1

[8] = tested on: Human Colon Cancer HCT-116; experiment: as above; conditions: Homo sapiens, HCT-116; HCT116 cells
In short: as §1

PLK1 = target: T1, PLK1 (Homo sapiens, UniProt P53350); experiment: Western blot, protein degradation (DC50); conditions: western blot
T1 construct: endogenous in cells
T1 sequence (P53350 whole entry): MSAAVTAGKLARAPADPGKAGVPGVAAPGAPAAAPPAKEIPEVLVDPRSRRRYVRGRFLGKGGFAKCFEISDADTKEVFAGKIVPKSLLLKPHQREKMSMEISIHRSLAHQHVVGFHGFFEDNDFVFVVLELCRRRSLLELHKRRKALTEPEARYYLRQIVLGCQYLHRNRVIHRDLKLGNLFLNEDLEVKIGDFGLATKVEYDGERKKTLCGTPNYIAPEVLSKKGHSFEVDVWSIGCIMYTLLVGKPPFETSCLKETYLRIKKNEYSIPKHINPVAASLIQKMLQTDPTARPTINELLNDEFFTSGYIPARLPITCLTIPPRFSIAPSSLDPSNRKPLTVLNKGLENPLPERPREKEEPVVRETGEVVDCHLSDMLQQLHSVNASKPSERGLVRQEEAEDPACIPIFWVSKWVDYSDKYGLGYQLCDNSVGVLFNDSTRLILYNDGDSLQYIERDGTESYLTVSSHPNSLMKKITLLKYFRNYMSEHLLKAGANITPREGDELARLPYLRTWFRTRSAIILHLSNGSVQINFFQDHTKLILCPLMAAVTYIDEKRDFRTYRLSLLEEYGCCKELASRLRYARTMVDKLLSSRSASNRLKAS
In short: (§2)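 Cells treated with compound, lysed in RIPA and resolved by SDS-PAGE (4%-12%); PVDF blots probed with primary antibody overnight at 4° C, then secondary antibody, and developed with ECL. Band intensities quantified by densitometry to give degradation.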

BRD4 = target: T2, BRD4 (Homo sapiens, UniProt O60885); experiment: Western blot, protein degradation (DC50); conditions: western blot
T2 construct: endogenous in cells
In short: as §2

PBMC = experiment: Cell proliferation experiment (EC50), PBMC
HUVEC = experiment: Cell proliferation experiment (EC50), HUVEC; conditions: Homo sapiens
[9] = tested on: Human Acute Lymphoblastic Leukemia Cells MOLT-4; experiment: Cell proliferation experiment (Alarm blue, 72 h, EC50); conditions: MOL4-4 cells
In short: as §1

Daudi = experiment: Cell proliferation experiment (EC50), Daudi; conditions: Homo sapiens; Daudi cells
[10] = 24 h, read-out: PLK1 DC50 (24 h)
[11] = 24 h, read-out: BRD4 DC50 (24 h)

EC50 ([6]; MV4-11, MV4;11 cells) [µM] | EC50 [8] [µM] | Compound | EC50 [1] [µM] | EC50 [2] [µM] | EC50 [3] [µM] | EC50 [4] [µM] | EC50 [5] [µM] | EC50 [7] [µM] | EC50 (Human Colon Cancer HT-29) [µM] | EC50 ([6]; MV4;11 cells) [µM] | DC50 (PLK1; 6 h, read-out: PLK1 DC50 (6 h)) [µM] | DC50 (BRD4; 6 h, read-out: BRD4 DC50 (6 h)) [µM] | EC50 (PBMC) [µM] | EC50 (HUVEC) [µM] | EC50 [9] [µM] | DC50 (PLK1; [10]) [µM] | DC50 (BRD4; [11]) [µM] | EC50 (Daudi) [µM]
< 0.01 | > 1 | CC[C@@H]1C(=O)N(C)c2cnc(Nc3ccc(C(=O)NCCOCCOCCOCCNCCC(=O)Nc4cccc5c4CN(C4CCC(=O)NC4=O)C5=O)cc3OC)nc2N1Cc1ccc(Br)cc1 (stereo partly shown) [UB-180634] | 0.1 to 1 | 0.1 to 1 | > 1 | 0.1 to 1 | 0.1 to 1 | 0.1 to 1 | 0.1 to 1 |  |  |  |  |  |  |  |  | 
 |  | CC[C@@H]1C(=O)N(C)c2cnc(Nc3ccc(C(=O)NCCOCCNCCCCCCC(=O)Nc4cccc5c4CN(C4CCC(=O)NC4=O)C5=O)cc3OC)nc2N1C1CCCC1 (stereo partly shown) [UB-180655] |  |  |  |  |  |  |  | 0.01 to 0.1 | 0.1 to 1 | < 0.01 | > 1 | > 1 |  |  |  | 
0.01 to 0.1 | 0.1 to 1 | CC[C@@H]1C(=O)N(C)c2cnc(Nc3ccc(C(=O)NCCCNCCCCC(=O)Nc4cccc5c4CN(C4CCC(=O)NC4=O)C5=O)cc3OC)nc2N1C1CCCC1 (stereo partly shown) [UB-180658] | 0.1 to 1 | 0.1 to 1 | > 1 | 0.1 to 1 | 0.1 to 1 | 0.1 to 1 | 0.1 to 1 |  | 0.01 to 0.1 | 0.01 to 0.1 |  |  |  |  |  | 
 |  | CC[C@@H]1C(=O)N(C)c2cnc(Nc3ccc(C(=O)NCCOCCOCCOCCNCCCCC(=O)Nc4cccc5c4CN(C4CCC(=O)NC4=O)C5=O)cc3OC)nc2N1Cc1ccc(Br)cc1 (stereo partly shown) [UB-180667] | 0.1 to 1 | 0.1 to 1 | 0.1 to 1 |  |  | 0.1 to 1 | 0.1 to 1 | 0.01 to 0.1 |  |  |  |  | 0.1 to 1 | < 0.01 | < 0.01 | 
 |  | CC[C@@H]1C(=O)N(C)c2cnc(Nc3ccc(C(=O)NCCOCCNCCCCCCC(=O)Nc4cccc5c4CN(C4CCC(=O)NC4=O)C5=O)cc3OC)nc2N1Cc1ccc(Cl)s1 (stereo partly shown) [UB-180675] |  |  |  |  |  |  |  | 0.01 to 0.1 | < 0.01 | < 0.01 | > 1 | > 1 |  |  |  | 
 |  | CC[C@@H]1C(=O)N(C)C2CNC(Nc3ccc(C(=O)NCCCNCCCC(=O)Nc4cccc5c4CN(C4CCC(=O)NC4=O)C5=O)cc3OC)NC2N1Cc1ccc(Cl)s1 (stereo partly shown) [UB-180678] | 0.1 to 1 | 0.1 to 1 | 0.1 to 1 |  |  | 0.1 to 1 | 0.1 to 1 | 0.01 to 0.1 | 0.1 to 1 | < 0.01 | 0.1 to 1 | 0.1 to 1 | 0.1 to 1 |  |  | 
 |  | CC[C@@H]1C(=O)N(C)c2cnc(Nc3ccc(C(=O)NCc4cn(CCNCCC(=O)Nc5cccc6c5CN(C5CCC(=O)NC5=O)C6=O)nn4)cc3OC)nc2N1C1CCCC1 (stereo partly shown) [UB-180680] | 0.1 to 1 | 0.1 to 1 | 0.1 to 1 |  |  | 0.1 to 1 | 0.1 to 1 | 0.01 to 0.1 | < 0.01 | < 0.01 | > 1 | > 1 | 0.1 to 1 | 0.01 to 0.1 | < 0.01 | 0.1 to 1
 |  | CC[C@@H]1C(=O)N(C)c2cnc(Nc3ccc(C(=O)NCc4cn(CCNCCCC(=O)Nc5cccc6c5CN(C5CCC(=O)NC5=O)C6=O)nn4)cc3OC)nc2N1C1CCCC1 (stereo partly shown) [UB-180681] | 0.1 to 1 | 0.1 to 1 | 0.1 to 1 |  |  | 0.1 to 1 | 0.1 to 1 | < 0.01 | 0.1 to 1 | < 0.01 |  |  | 0.1 to 1 |  |  | 
 |  | CC[C@@H]1C(=O)N(C)c2cnc(Nc3ccc(C(=O)NC4CCN(CCOCCNCC(=O)Nc5cccc6c5CN(C5CCC(=O)NC5=O)C6=O)CC4)cc3OC)nc2N1C1CCCC1 (stereo partly shown) [UB-180699] | 0.1 to 1 | 0.1 to 1 | 0.1 to 1 | 0.1 to 1 | 0.1 to 1 | > 1 | 0.1 to 1 | 0.01 to 0.1 |  |  |  |  | 0.1 to 1 | < 0.01 | < 0.01 | 

Compound | EC50 ([6]; MV4-11, MV4;11 cells) [µM] | EC50 [8] [µM] | EC50 [1] [µM] | EC50 [2] [µM] | EC50 [3] [µM] | EC50 [4] [µM] | EC50 [5] [µM] | EC50 [7] [µM] | EC50 (Human Colon Cancer HT-29) [µM] | EC50 ([6]; MV4;11 cells) [µM] | DC50 (PLK1; 6 h, read-out: PLK1 DC50 (6 h)) [µM] | DC50 (BRD4; 6 h, read-out: BRD4 DC50 (6 h)) [µM] | EC50 (PBMC) [µM] | EC50 (HUVEC) [µM] | EC50 [9] [µM] | DC50 (PLK1; [10]) [µM] | DC50 (BRD4; [11]) [µM] | EC50 (Daudi) [µM]
CC[C@@H]1C(=O)N(C)c2cnc(Nc3ccc(C(=O)NCCCNCCCCCC(=O)Nc4cccc5c4CN(C4CCC(=O)NC4=O)C5=O)cc3OC)nc2N1C1CCCC1 (stereo partly shown) [UB-180660] | 0.01 to 0.1 | 0.1 to 1 | 0.1 to 1 | 0.1 to 1 | > 1 | 0.1 to 1 | 0.1 to 1 | 0.1 to 1 | 0.1 to 1 |  | < 0.01 | 0.01 to 0.1 | > 1 | > 1 |  |  |  | 

Source: patent US20210369853A1, “TARGETED PROTEASE DEGRADATION PLATFORM” (EUBULUS BIOTHERAPEUTICS INC., priority 2018, published 2021)
